Measured values reported in PubChem BioAssay AID330 (DTP/NCI, 2004).
“And” between values parts separate entries of the source, which are not always exact repeats. Equal values may be shown once. Toxic doses and inconclusive results are not listed.

System: P388 leukemia ip, CD2F1 mice, survival T/C
Experiment: NCI In Vivo Anticancer Drug Screen. Data for tumor model P388 Leukemia (intraperitoneal) in CD2F1 (CDF1) mice
Conditions: endpoint: median survival time, higher = longer survival
Summary of the method: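 Mice carrying the transplanted tumor received test compound or vehicle. Survival was recorded in each group, and the value is the treated-group measurement divided by that of the vehicle-treated control group.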

[1] = dose: 50.0 mg/kg/injection, schedule: Q01DX005 (ip), vehicle: saline with Tween-80
[2] = dose: 100.0 mg/kg/injection, schedule: Q01DX005 (ip), vehicle: saline with Tween-80
[3] = dose: 200.0 mg/kg/injection, schedule: Q01DX005 (ip), vehicle: saline with Tween-80
[4] = dose: 60.0 mg/kg/injection, schedule: Q01DX005 (ip), vehicle: saline with Tween-80
[5] = dose: 120.0 mg/kg/injection, schedule: Q01DX005 (ip), vehicle: saline with Tween-80
[6] = dose: 240.0 mg/kg/injection, schedule: Q01DX005 (ip), vehicle: saline with Tween-80
[7] = dose: 12.5 mg/kg/injection, schedule: Q01DX009 (ip), vehicle: other
[8] = dose: 25.0 mg/kg/injection, schedule: Q01DX009 (ip), vehicle: other
[9] = dose: 100.0 mg/kg/injection, schedule: Q04DX003 (ip), vehicle: Klucel (hydroxypropylcellulose) (HPC)
[10] = dose: 200.0 mg/kg/injection, schedule: Q04DX003 (ip), vehicle: Klucel (hydroxypropylcellulose) (HPC)
[11] = dose: 400.0 mg/kg/injection, schedule: Q04DX003 (ip), vehicle: Klucel (hydroxypropylcellulose) (HPC)

With `COc1ccc2cc3[n+](c(CC(=O)O)c2c1OC)CCc1cc2c(cc1-3)OCO2` the T/C (dose: 0.63 mg/kg/injection, schedule: Q01DX009 (ip), vehicle: water) was 101 % of control, the T/C (dose: 1.25 mg/kg/injection, schedule: Q01DX009 (ip), vehicle: water) was 88 % of control and the T/C (dose: 2.5 mg/kg/injection, schedule: Q01DX009 (ip), vehicle: water) was 105 % of control. The T/C (dose: 5.0 mg/kg/injection, schedule: Q01DX009 (ip), vehicle: water) was 117 % of control and the T/C (dose: 10.0 mg/kg/injection, schedule: Q01DX009 (ip), vehicle: water) was 118 % of control.

`COc1ccc(/C(CC2(O)C(=O)Nc3c(C)cc(Cl)cc32)=N\NC(=O)C(=O)NN)cc1` (stereo unspecified) was tested, and the T/C [1] was 106 % of control, the T/C [2] was 98 % of control and the T/C [3] was 96 % of control.

For `Cc1nc2ccccc2n(CC2CCCN3CCCC[C@H]23)c1=O` (stereo partly specified), the T/C [1] was 97 % of control and the T/C [2] was 101 % of control.

`CCOc1ccc(/C=N/NS(=O)(=O)c2ccccc2)cc1OC` was tested, and the T/C (dose: 100.0 mg/kg/injection, schedule: Q04DX003 (ip), vehicle: saline with Tween-80) was 100 % of control, the T/C (dose: 200.0 mg/kg/injection, schedule: Q04DX003 (ip), vehicle: saline with Tween-80) was 95 % of control and the T/C (dose: 400.0 mg/kg/injection, schedule: Q04DX003 (ip), vehicle: saline with Tween-80) was 100 % of control.

For `O=C1c2c(Cl)c(Cl)c(Cl)c(Cl)c2C(=O)N1c1ccccc1-c1ccccc1`, the T/C (dose: 87.5 mg/kg/injection, schedule: Q01DX009 (ip), vehicle: saline with Tween-80) was 97 % of control, the T/C (dose: 175.0 mg/kg/injection, schedule: Q01DX009 (ip), vehicle: saline with Tween-80) was 97 % of control and the T/C (dose: 350.0 mg/kg/injection, schedule: Q01DX009 (ip), vehicle: saline with Tween-80) was 97 % of control.

For `CCN1C(=NCCO)NS(=O)(=O)c2ccccc21`, the T/C [4] was 95 % of control, the T/C [5] was 106 % of control and the T/C [6] was 99 % of control.

With `O=C(O)C(S)C(S)C(=O)O` (stereo unspecified) the T/C [7] was 102 % of control, the T/C [8] was 108 % of control and the T/C (dose: 50.0 mg/kg/injection, schedule: Q01DX009 (ip), vehicle: other) was 103 % of control. The T/C (dose: 100.0 mg/kg/injection, schedule: Q01DX009 (ip), vehicle: other) was 94 % of control and the T/C (dose: 200.0 mg/kg/injection, schedule: Q01DX009 (ip), vehicle: other) was 90 % of control.

In the case of `CC(C)(C)OC(=O)NC(CCC(=O)OCc1ccccc1)C(=O)ON1C(=O)CCC1=O` (stereo unspecified), the T/C [1] is reported as 104 % of control, the T/C [2] is reported as 114 % of control and the T/C [3] is reported as 102 % of control.

In the case of `CC1c2ccccc2CC(CCN(C)C)c2ccccc21` (stereo unspecified), the T/C (dose: 6.25 mg/kg/injection, schedule: Q01DX005 (ip), vehicle: saline with Tween-80) is reported as 101 % of control and 102 % of control and 106 % of control, the T/C (dose: 12.5 mg/kg/injection, schedule: Q01DX005 (ip), vehicle: saline with Tween-80) is reported as 101 % of control and 109 % of control (2×) and the T/C (dose: 25.0 mg/kg/injection, schedule: Q01DX005 (ip), vehicle: saline with Tween-80) is reported as 109 % of control and 97 % of control. For the same molecule, the T/C [1] was 110 % of control.

With `NC(=S)n1nc(-c2ccccc2)c(N=Nc2cccc(Cl)c2Cl)c1-c1ccccc1` the T/C (dose: 100.0 mg/kg/injection, schedule: Q01DX001 (ip), vehicle: saline with Tween-80) was 89 % of control, the T/C (dose: 200.0 mg/kg/injection, schedule: Q01DX001 (ip), vehicle: saline with Tween-80) was 94 % of control and the T/C (dose: 400.0 mg/kg/injection, schedule: Q01DX001 (ip), vehicle: saline with Tween-80) was 97 % of control.

In the case of `Cc1ccc(S(=O)(=O)NN=c2c3ccccc3ccc3ccccc23)cc1`, the T/C (dose: 100.0 mg/kg/injection, schedule: Q04DX002 (ip), vehicle: Klucel (hydroxypropylcellulose) (HPC)) is reported as 94 % of control, the T/C (dose: 200.0 mg/kg/injection, schedule: Q04DX002 (ip), vehicle: Klucel (hydroxypropylcellulose) (HPC)) is reported as 91 % of control and the T/C (dose: 400.0 mg/kg/injection, schedule: Q04DX002 (ip), vehicle: Klucel (hydroxypropylcellulose) (HPC)) is reported as 90 % of control.

For `CN=C1NC2C(C(=O)N(C)C(=O)N2C)C(=S)N1C` (stereo unspecified), the T/C (dose: 6.25 mg/kg/injection, schedule: Q04DX002 (ip), vehicle: saline with Tween-80) was 100 % of control, the T/C (dose: 12.5 mg/kg/injection, schedule: Q04DX002 (ip), vehicle: saline with Tween-80) was 104 % of control and the T/C (dose: 25.0 mg/kg/injection, schedule: Q04DX002 (ip), vehicle: saline with Tween-80) was 101 % of control.

For `FC(F)(F)Sc1c(SC(F)(F)F)c(SC(F)(F)F)n(-n2c(SC(F)(F)F)c(SC(F)(F)F)c(SC(F)(F)F)c2SC(F)(F)F)c1SC(F)(F)F`, the T/C (dose: 15.0 mg/kg/injection, schedule: Q01DX005 (ip), vehicle: Klucel (hydroxypropylcellulose) (HPC)) was 104 % of control, the T/C (dose: 30.0 mg/kg/injection, schedule: Q01DX005 (ip), vehicle: Klucel (hydroxypropylcellulose) (HPC)) was 106 % of control and the T/C (dose: 60.0 mg/kg/injection, schedule: Q01DX005 (ip), vehicle: Klucel (hydroxypropylcellulose) (HPC)) was 103 % of control and 97 % of control.

`CC1(C)OC2OCC(N=[N+]=[N-])C(O)C2O1` (stereo unspecified) was tested, and the T/C [1] was 113 % of control, the T/C [2] was 101 % of control and the T/C [3] was 92 % of control.

`O=C1CCC(N2C(=O)C3C4CCC(O4)C3C2=O)C(=O)N1` (stereo unspecified) was tested, and the T/C [4] was 101 % of control, the T/C [5] was 94 % of control and the T/C [6] was 100 % of control.

For `Nc1nc2[nH]c(=O)c(=O)[nH]c2c(=O)[nH]1`, the T/C (dose: 50.0 mg/kg/injection, schedule: Q04DX003 (ip), vehicle: Klucel (hydroxypropylcellulose) (HPC)) was 96 % of control, the T/C [9] was 97 % of control and the T/C [10] was 94 % of control. For the same molecule, the T/C [11] was 105 % of control.

`CCN(CC)C(=S)Sc1nsc(SC(=S)N(CC)CC)c1C#N` was tested, and the T/C (dose: 50.0 mg/kg/injection, schedule: Q01DX009 (ip), vehicle: saline with Tween-80) was 94 % of control, the T/C (dose: 100.0 mg/kg/injection, schedule: Q01DX009 (ip), vehicle: saline with Tween-80) was 94 % of control and the T/C (dose: 200.0 mg/kg/injection, schedule: Q01DX009 (ip), vehicle: saline with Tween-80) was 94 % of control.

In the case of `CC(Cc1ccc(O)cc1)NCC(O)c1cc(O)cc(O)c1` (stereo unspecified), the T/C (dose: 50.0 mg/kg/injection, schedule: Q01DX009 (ip), vehicle: saline) is reported as 96 % of control, the T/C (dose: 66.0 mg/kg/injection, schedule: Q01DX009 (ip), vehicle: saline) is reported as 99 % of control and 87 % of control and the T/C (dose: 100.0 mg/kg/injection, schedule: Q01DX009 (ip), vehicle: saline) is reported as 99 % of control and 100 % of control. For the same molecule, the T/C (dose: 150.0 mg/kg/injection, schedule: Q01DX009 (ip), vehicle: saline) was 91 % of control and 93 % of control and the T/C (dose: 200.0 mg/kg/injection, schedule: Q01DX009 (ip), vehicle: saline) was 112 % of control.

For `Cn1c(=O)c2nc(-c3ccccc3)nnc2n(C)c1=O`, the T/C [9] was 102 % of control, the T/C [10] was 103 % of control and the T/C [11] was 115 % of control.

For `CC(C)(C)c1ccc(OP(=S)(NN)Oc2ccc(C(C)(C)C)cc2)cc1`, the T/C (dose: 50.0 mg/kg/injection, schedule: Q01DX009 (ip), vehicle: Klucel (hydroxypropylcellulose) (HPC)) was 98 % of control, the T/C (dose: 100.0 mg/kg/injection, schedule: Q01DX009 (ip), vehicle: Klucel (hydroxypropylcellulose) (HPC)) was 102 % of control and the T/C (dose: 200.0 mg/kg/injection, schedule: Q01DX009 (ip), vehicle: Klucel (hydroxypropylcellulose) (HPC)) was 94 % of control.

For `CC1CCCCC1=C(C#N)C#N` (stereo unspecified), the T/C [7] was 95 % of control and the T/C [8] was 100 % of control.

In the case of `CC(OS(C)(=O)=O)C(C)OS(C)(=O)=O` (stereo unspecified), the T/C [9] is reported as 89 % of control, the T/C [10] is reported as 116 % of control and the T/C [11] is reported as 120 % of control.

In the case of `COc1cc([N+](=O)[O-])ccc1C`, the T/C (dose: 100.0 mg/kg/injection, schedule: Q04DX003 (ip), vehicle: other) is reported as 104 % of control, the T/C (dose: 200.0 mg/kg/injection, schedule: Q04DX003 (ip), vehicle: other) is reported as 100 % of control and the T/C (dose: 400.0 mg/kg/injection, schedule: Q04DX003 (ip), vehicle: other) is reported as 100 % of control.

For `CO/N=C1\N=C(C)C(=N)N1c1ccccc1`, the T/C [4] was 104 % of control, the T/C [5] was 99 % of control and the T/C [6] was 107 % of control.

For `[Cu+2].[O-]c1ccccc1C=NCC(O)CN=Cc1ccccc1[O-]` (stereo unspecified), the T/C (dose: 3.75 mg/kg/injection, schedule: Q01DX005 (ip), vehicle: saline with Tween-80) was 97 % of control and the T/C (dose: 7.5 mg/kg/injection, schedule: Q01DX005 (ip), vehicle: saline with Tween-80) was 104 % of control.

With `Cc1c(CNc2ccc(C(=O)NC(CC(=O)O)CC(=O)O)cc2)ccc2nc(N)nc(N)c12` the T/C (dose: 3.13 mg/kg/injection, schedule: Q04DX003 (ip), vehicle: saline) was 229 % of control, the T/C (dose: 12.5 mg/kg/injection, schedule: Q04DX003 (ip), vehicle: saline with Tween-80) was 118 % of control and the T/C (dose: 25.0 mg/kg/injection, schedule: Q04DX003 (ip), vehicle: saline with Tween-80) was 113 % of control. The T/C (dose: 33.0 mg/kg/injection, schedule: Q04DX003 (ip), vehicle: saline sonified) was 90 % of control, the T/C (dose: 50.0 mg/kg/injection, schedule: Q04DX003 (ip), vehicle: saline sonified) was 86 % of control and the T/C (dose: 50.0 mg/kg/injection, schedule: Q04DX003 (ip), vehicle: saline with Tween-80) was 159 % of control.
